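Values below derive from 48-hour exposures of cells grown in 96-well plates, with endpoints linearly interpolated between the two concentrations bracketing the appropriate inhibition level. The concentration for 50% growth inhibition is given as GI50.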 The source made the active and inactive calls. Cut-off read from the data, not from the text of the source: active = GI50 up to about 1.1 µM and inactive = higher.
How the values were obtained:
Test in all cases: inhibition of tumour cell growth, NCI panel, 48 h
A498 = system: A498
NCI-H23 = system: NCI-H23
SNB-19 = system: SNB-19
SK-MEL-2 = system: SK-MEL-2
ACHN = system: ACHN
NCI-H226 = system: NCI-H226
MOLT-4 = system: MOLT-4
MCF7 = system: MCF7
HOP-62 = system: HOP-62
NCI/ADR-RES = system: NCI/ADR-RES
UACC-62 = system: UACC-62
TK-10 = system: TK-10
EKVX = system: EKVX
K562 = system: K562
HL-60 = system: HL-60
SR = system: SR
COLO 205 = system: COLO 205
UO-31 = system: UO-31
MDA-N = system: MDA-N
BT-549 = system: BT-549

| SMILES | GI50 (A498) | GI50 (NCI-H23) | GI50 (SNB-19) | GI50 (SK-MEL-2) | GI50 (ACHN) | GI50 (NCI-H226) | GI50 (MOLT-4) | GI50 (MCF7) | GI50 (HOP-62) | GI50 (NCI/ADR-RES) | GI50 (UACC-62) | GI50 (TK-10) | GI50 (EKVX) | GI50 (K562) | GI50 (HL-60) | GI50 (SR) | GI50 (COLO 205) | GI50 (UO-31) | GI50 (MDA-N) | GI50 (BT-549) |
| --- | --- | --- | --- | --- | --- | --- | --- | --- | --- | --- | --- | --- | --- | --- | --- | --- | --- | --- | --- | --- |
| O=C1OCC(CN2CCC(n3c(=O)[nH]c4ccccc43)CC2)=C1c1ccccc1 | 23.5 µM (inactive) | 21.2 µM (inactive) | 26.1 µM (inactive) | 19.8 µM (inactive) | 29.4 µM (inactive) | 25.4 µM (inactive) | 22 µM (inactive) | 28.2 µM (inactive) | 28.5 µM (inactive) | 22.5 µM (inactive) | 12.6 µM (inactive) | 28.1 µM (inactive) | 25.9 µM (inactive) | 14.9 µM (inactive) | 15.5 µM (inactive) | 30.2 µM (inactive) | 14.6 µM (inactive) | 11.5 µM (inactive) | 26.2 µM (inactive) |  |
| O=C(O)CCc1ccc2c(c1)CC1(Cc3ccccc3C1)C2 | > 100 µM (inactive) | > 100 µM (inactive) |  | > 100 µM (inactive) | 58.5 µM (inactive) | 79.8 µM (inactive) | > 100 µM (inactive) | > 100 µM (inactive) | > 100 µM (inactive) | > 100 µM (inactive) | > 100 µM (inactive) | > 100 µM (inactive) | > 100 µM (inactive) |  |  | 37.9 µM (inactive) | 78 µM (inactive) | > 100 µM (inactive) | > 100 µM (inactive) |  |
| COc1ccc2c(c1)CCN=C2c1ccccc1CCCCl | 49.1 µM (inactive) | 4.85 µM (inactive) | 7.67 µM (inactive) | 28 µM (inactive) | 24.3 µM (inactive) | 15.7 µM (inactive) | 13 µM (inactive) | 23.1 µM (inactive) | 28.6 µM (inactive) | 26.4 µM (inactive) | 36.1 µM (inactive) | 94 µM (inactive) | 17.7 µM (inactive) | 5.62 µM (inactive) | 11.4 µM (inactive) |  | 11 µM (inactive) | 10 µM (inactive) |  | 38.5 µM (inactive) |
| CC1(C)C(C#N)=[N+]([O-])C(C)(C)N1O |  | > 100 µM (inactive) | > 100 µM (inactive) | > 100 µM (inactive) | > 100 µM (inactive) | > 100 µM (inactive) | 35.5 µM (inactive) | 79.4 µM (inactive) | > 100 µM (inactive) | > 100 µM (inactive) | > 100 µM (inactive) | > 100 µM (inactive) | > 100 µM (inactive) | > 100 µM (inactive) | 26.7 µM (inactive) | > 100 µM (inactive) | > 100 µM (inactive) | > 100 µM (inactive) | 65.8 µM (inactive) |  |
| C=CCOC(OCC=C)/C(Br)=C/C | > 100 µM (inactive) | 31 µM (inactive) | > 100 µM (inactive) | 68.2 µM (inactive) | 17.6 µM (inactive) | > 100 µM (inactive) |  | 28.3 µM (inactive) | > 100 µM (inactive) | 31 µM (inactive) | 64.4 µM (inactive) | > 100 µM (inactive) | 35.9 µM (inactive) | > 100 µM (inactive) | 41 µM (inactive) | > 100 µM (inactive) | 19.2 µM (inactive) | 34.9 µM (inactive) | 37 µM (inactive) |  |
| COc1ccc(C2=C(Cl)C(=O)N(c3ccc(OC)cc3OC)C(=O)C2(Cl)Cl)cc1 |  | 15.4 µM (inactive) | 56.6 µM (inactive) | 20.9 µM (inactive) | 15.7 µM (inactive) | 11.9 µM (inactive) | 5.07 µM (inactive) | 21 µM (inactive) | 18.5 µM (inactive) | 14.5 µM (inactive) | 14.5 µM (inactive) | 18.9 µM (inactive) | 32.8 µM (inactive) | 19.8 µM (inactive) | 25.2 µM (inactive) | 4.09 µM (inactive) | 17.9 µM (inactive) | 14.8 µM (inactive) |  | 18.8 µM (inactive) |
| O=C(COc1ccc2c(=O)cc(-c3ccc(Cl)cc3)oc2c1)N1CCN(c2ccccc2)CC1 | 5.69 µM (inactive) | > 100 µM (inactive) | > 100 µM (inactive) | > 100 µM (inactive) | > 100 µM (inactive) | > 100 µM (inactive) | 6.56 µM (inactive) |  | > 100 µM (inactive) |  | > 100 µM (inactive) | > 100 µM (inactive) | > 100 µM (inactive) | 4.56 µM (inactive) | 59.3 µM (inactive) | > 100 µM (inactive) | 4.37 µM (inactive) | 1.73 µM (inactive) |  |  |
| O=C(/C=C/c1cc(Cl)cc(Cl)c1O)c1cccc(O)c1 | > 100 µM (inactive) | 52 µM (inactive) | 41.9 µM (inactive) | 26.2 µM (inactive) | > 100 µM (inactive) | 16.1 µM (inactive) | 20.4 µM (inactive) |  | 74 µM (inactive) |  | 29.8 µM (inactive) | > 100 µM (inactive) | 36.3 µM (inactive) | 33.4 µM (inactive) | 29.1 µM (inactive) | 25.5 µM (inactive) | 18.6 µM (inactive) | 74.1 µM (inactive) |  |  |
| OC(c1ccccc1)c1c(-c2ccccc2)oc(-c2ccccc2)c1C(O)c1ccccc1 (centres undefined) | 16.8 µM (inactive) | 9.06 µM (inactive) | 14.8 µM (inactive) | 14.2 µM (inactive) | 6.14 µM (inactive) | 7.4 µM (inactive) | 5.06 µM (inactive) | 4.37 µM (inactive) | 14.4 µM (inactive) | 9.02 µM (inactive) | 11.2 µM (inactive) | 15.6 µM (inactive) | 5.75 µM (inactive) | 3.58 µM (inactive) | 3.26 µM (inactive) | 9.95 µM (inactive) | 5.87 µM (inactive) | 10.6 µM (inactive) | 9.1 µM (inactive) |  |
| COc1ccc2c(=O)c3c([nH]c2c1)OCC3=O | > 100 µM (inactive) | > 100 µM (inactive) | > 100 µM (inactive) | > 100 µM (inactive) | > 100 µM (inactive) | > 100 µM (inactive) | > 100 µM (inactive) | > 100 µM (inactive) | > 100 µM (inactive) | > 100 µM (inactive) | > 100 µM (inactive) | > 100 µM (inactive) | > 100 µM (inactive) | 36.5 µM (inactive) | > 100 µM (inactive) | > 100 µM (inactive) | > 100 µM (inactive) | > 100 µM (inactive) |  | > 100 µM (inactive) |
| CCOC(=O)[C@@H]1ON2O[C@H](OC3CCCC3(c3ccccc3)c3ccccc3)C[C@H]3OC(=O)[C@@H]1C32 (some centres undefined) | 35.2 µM (inactive) | 27 µM (inactive) |  |  | 65.5 µM (inactive) | 36.4 µM (inactive) | 45 µM (inactive) | 34.4 µM (inactive) | > 100 µM (inactive) | 31.8 µM (inactive) | 27 µM (inactive) | 81.3 µM (inactive) | > 100 µM (inactive) | 41.2 µM (inactive) | 22.2 µM (inactive) | 33.7 µM (inactive) | 40.6 µM (inactive) | 37.6 µM (inactive) | 43.3 µM (inactive) |  |
| Cc1ccc(C2(O)CC(c3ccc([N+](=O)[O-])o3)=NN2C(=O)COc2ccc(Cl)cc2)cc1 (centres undefined) | 4.98 µM (inactive) | 5.2 µM (inactive) | 6.62 µM (inactive) | 4.44 µM (inactive) | 4.99 µM (inactive) | 17.1 µM (inactive) | 3.26 µM (inactive) |  | 12.3 µM (inactive) |  | 3.55 µM (inactive) | 15 µM (inactive) | 6.3 µM (inactive) | 4.07 µM (inactive) | 1.75 µM (inactive) | 1.82 µM (inactive) | 3.62 µM (inactive) | 5.5 µM (inactive) |  |  |
| Cc1ccc(OC2CC(n3cnc4c(=O)[nH]c(Br)nc43)OC2Oc2ccc(C)cc2)cc1 (centres undefined) | > 100 µM (inactive) | 26.9 µM (inactive) | 21.5 µM (inactive) | 26.8 µM (inactive) | 19.8 µM (inactive) | 34.5 µM (inactive) | 23.9 µM (inactive) | 23.5 µM (inactive) | 24.1 µM (inactive) | 28.7 µM (inactive) | 23.7 µM (inactive) | 23.2 µM (inactive) | 23.8 µM (inactive) | 17.1 µM (inactive) | 30.3 µM (inactive) | 18.1 µM (inactive) | 31 µM (inactive) | 19.1 µM (inactive) |  | 26.9 µM (inactive) |
| C/C(=N\Nc1nc2cc(F)ccc2s1)c1ccccn1 | 12.1 µM (inactive) | 0.0352 µM (active) | 0.391 µM (active) | 1.54 µM (inactive) | < 0.01 µM (active) | < 0.0242 µM (active) | 0.0102 µM (active) | 0.0199 µM (active) | 0.381 µM (active) | 0.0274 µM (active) | 0.123 µM (active) |  | < 0.0141 µM (active) | < 0.0147 µM (active) | < 0.01 µM (active) | 0.0313 µM (active) | < 0.01 µM (active) | 0.0192 µM (active) |  | 1.19 µM (inactive) |
| Nc1ncnc2c1ncn2C1CCC(COS(N)(=O)=O)C1 (centres undefined) |  | > 100 µM (inactive) | > 100 µM (inactive) | > 100 µM (inactive) | > 100 µM (inactive) | > 100 µM (inactive) | 46.9 µM (inactive) | 58.7 µM (inactive) | > 100 µM (inactive) | > 100 µM (inactive) | > 100 µM (inactive) | > 100 µM (inactive) | > 100 µM (inactive) | > 100 µM (inactive) | 31.1 µM (inactive) | 56.4 µM (inactive) | > 100 µM (inactive) | > 100 µM (inactive) | > 100 µM (inactive) |  |
| Clc1ccc(Cl)c(/N=N/c2cc3c4c(c2)CCCN4CCC3)c1 | > 10 µM (inactive) | > 10 µM (inactive) | > 10 µM (inactive) | > 10 µM (inactive) | > 10 µM (inactive) | > 10 µM (inactive) | > 10 µM (inactive) | > 10 µM (inactive) | > 10 µM (inactive) | > 10 µM (inactive) | > 10 µM (inactive) | > 10 µM (inactive) | > 10 µM (inactive) | > 10 µM (inactive) | 5 µM (inactive) | > 10 µM (inactive) | > 10 µM (inactive) | > 10 µM (inactive) | > 10 µM (inactive) |  |
